Reference: PMC3481155, “AhR activation underlies the CYP1A autoinduction by A-998679 in rats” (Frontiers in Genetics, 2012)

How the values were obtained:
[1] = molecular target: T1, rat Cyp2c11 (Rattus norvegicus, UniProt P08683); test: Recombinant rat Cyp phenotype profiling, 2C11; format: in vitro ADME; conditions: 60 min
T1 construct: purchased BD Gentest; host or cells: baculovirus infected insect cells
Method: (§1) Identification of the drug metabolizing enzymes (DMEs) of A-998679 was studied in cDNA expressed recombinant enzymes prepared from baculovirus infected insect cells over-expressing rat Cyp isoforms (BD Gentest, Woburn, MA) as listed in Table 2. Incubations were conducted in duplicate using Supersomes. The incubation mixture contained 100 pmol/ml of enzymes, except for Cyp1a1 (200 pmol/ml), 0.1 or 0.21 μM of [^3H]A-998679 in 100 mM phosphate buffer (pH 7.4). Reactions were initiated with the addition of NADPH at a final concentration of 1 mM and incubated at 37°C for 60 min. At the end of the incubation period, the incubations were terminated by the addition of acetonitrile/ethanol (50/50, v/v) solution. Insect control samples lacking expressed enzyme were used as negative control. The degree of metabolism of A-998679 was assessed by percent of parent remaining using the radio-HPLC method described below.
(§2) Radiolabeled components from the above assays were profiled following separation by HPLC with on line radioflow detector. The system consisted of an Agilent 1100 Series quaternary pump and autosampler connected to a Packard 500TR flow scintillation detector. The data were processed using the Radiomatic™ Flo-one® software v3.65. The scintillant (Perkin Elmer FLO-SCINT™ III) flow was maintained at 3 ml/min. […]

[2] = test system: Cyp1a2; test: Cyp1a2 mRNA in rat small intestine (jejunum); format: in vivo; conditions: data not shown
Method: All animal experiments were conducted in accordance with the Guiding Principles in the Use of Animals in Toxicology (http://www.toxicology.org/ai/air/air6.asp) and were approved by Abbott's Institutional Animal Care and Use Committee (IACUC). Male Sprague-Dawley rats [Crl:CD®(SD)IGS BR], weighing ~250 g at study initiation were obtained from Charles River Laboratories, Inc. (Wilmington, MA). Rats were housed singly in ventilated, stainless steel, wire-bottom hanging cages and fed non-certified Rodent Chow (Harlan Labs, Madison, WI), and water ad libitum and acclimated for at least 5 days after arrival. […] Serum clinical chemistry parameters were quantified using an Aeroset Clinical Chemistry Analyzer (Abbott Laboratories, Abbott Park, IL) and included alanine amino transferase (ALT), aspartate amino transferase (AST), gamma glutamyltransferase (GGT), and alkaline phosphatase (ALP) activities.
Frozen liver or jejunum were immediately added to 4 ml of TRIzol reagent (Invitrogen Life Technologies) and homogenized using a Polytron 300D homogenizer (Brinkman Instruments, Westbury, NY). […] Nucleic acid concentration was determined by OD 260 nm (Smart-Spec, Bio-Rad Laboratories, Hercules, CA), and RNA integrity was evaluated using an Agilent 2100 bioanalyzer (Agilent Technologies, Foster City, CA). […]

[3] = molecular target: T2, CYP2C19 (Homo sapiens, UniProt P33261); test: CYP inhibition evaluation in human liver microsomes, CYP2C19 (S-mephenytoin); format: in vitro ADME; conditions: probe substrate S-mephenytoin
T2 construct: from tissue; host or cells: human liver microsomes
T2 sequence (P33261 whole entry): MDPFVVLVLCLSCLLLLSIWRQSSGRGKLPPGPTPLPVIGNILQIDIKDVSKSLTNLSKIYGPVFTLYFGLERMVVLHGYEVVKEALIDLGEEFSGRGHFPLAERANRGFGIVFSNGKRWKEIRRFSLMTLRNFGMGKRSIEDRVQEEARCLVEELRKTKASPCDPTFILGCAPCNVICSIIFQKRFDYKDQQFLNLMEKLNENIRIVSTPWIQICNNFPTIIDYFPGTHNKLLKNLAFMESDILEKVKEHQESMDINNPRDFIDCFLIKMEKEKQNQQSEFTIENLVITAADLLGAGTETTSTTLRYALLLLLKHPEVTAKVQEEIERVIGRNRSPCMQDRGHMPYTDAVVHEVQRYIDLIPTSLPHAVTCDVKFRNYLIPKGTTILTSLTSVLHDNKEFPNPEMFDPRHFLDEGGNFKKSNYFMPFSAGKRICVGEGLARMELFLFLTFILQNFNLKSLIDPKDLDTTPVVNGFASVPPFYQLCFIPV
Method: (§3) Incubations were performed in human liver microsomes using probe substrate concentrations similar to their corresponding Km values. Enzyme activity was evaluated in the presence of various concentrations of A-998679. The incubations consisted of the test article at varying concentrations (0–30 μM), probe substrate (concentration ~Km, see Table A2), human liver microsomal protein and 1 mM NADPH in 50 mM phosphate buffer at pH 7.4. Relative quantitation of the metabolites was obtained by LC-MS/MS using an ABSciex (Foster City, CA) API3000 or API4000 Qtrap hybrid linear ion trap mass spectrometer equipped with a TurboIonspray source using either PerkinElmer series 200 pumps or Agilent 1100 series pump with a Leap autosampler. Analytes were separated using a Phenomenex Prodigy ODS(3) 5 μm, 50 × 2.0 mm column at 50°C, eluted and detected under the specific conditions listed in Tables A3, A4, and A5. The analyte to internal standard peak area ratios were determined using Analyst 1.4 software (Applied Biosytems, Carlsbad, CA). The peak area ratios observed in the presence of test article were compared to the vehicle control in order to determine percent activity. To determine the IC50, the data were plotted as Log [dose] μM vs. % inhibition, and analyzed with a sigmoidal dose-response (variable slope) fitting equation. […]

[4] = molecular target: T3, rat Cyp 2D2 (Rattus norvegicus, UniProt P10634); test: Recombinant rat Cyp phenotype profiling, 2D2; format: in vitro ADME; conditions: 60 min
T3 construct: purchased BD Gentest; host or cells: baculovirus infected insect cells
T3 sequence (P10634 whole entry): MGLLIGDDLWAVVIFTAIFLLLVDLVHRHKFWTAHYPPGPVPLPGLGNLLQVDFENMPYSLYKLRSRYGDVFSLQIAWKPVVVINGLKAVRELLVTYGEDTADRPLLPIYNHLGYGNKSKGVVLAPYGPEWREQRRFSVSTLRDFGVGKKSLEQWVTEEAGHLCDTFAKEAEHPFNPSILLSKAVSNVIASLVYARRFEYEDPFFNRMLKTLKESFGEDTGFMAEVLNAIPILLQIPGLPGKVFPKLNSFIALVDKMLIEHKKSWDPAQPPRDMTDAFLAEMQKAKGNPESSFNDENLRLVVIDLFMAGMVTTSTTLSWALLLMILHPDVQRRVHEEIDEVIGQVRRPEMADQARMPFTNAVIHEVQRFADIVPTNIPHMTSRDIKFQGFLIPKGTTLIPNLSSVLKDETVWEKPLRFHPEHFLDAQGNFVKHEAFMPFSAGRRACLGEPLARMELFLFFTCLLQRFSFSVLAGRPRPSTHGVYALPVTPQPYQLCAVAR
Method: as §1, §2

[5] = test system: CYP1A2; test: CYP inhibition evaluation in human liver microsomes, CYP1A2 (phenacetin); format: in vitro ADME; conditions: pH 7.4, probe substrate phenacetin
Method: as §3

[6] = molecular target: T4, rat Cyp 3A2 (Rattus norvegicus, UniProt P05183); test: Recombinant rat Cyp phenotype profiling, 3A2; format: in vitro ADME; conditions: 60 min
T4 construct: purchased BD Gentest; host or cells: baculovirus infected insect cells
T4 sequence (P05183 whole entry): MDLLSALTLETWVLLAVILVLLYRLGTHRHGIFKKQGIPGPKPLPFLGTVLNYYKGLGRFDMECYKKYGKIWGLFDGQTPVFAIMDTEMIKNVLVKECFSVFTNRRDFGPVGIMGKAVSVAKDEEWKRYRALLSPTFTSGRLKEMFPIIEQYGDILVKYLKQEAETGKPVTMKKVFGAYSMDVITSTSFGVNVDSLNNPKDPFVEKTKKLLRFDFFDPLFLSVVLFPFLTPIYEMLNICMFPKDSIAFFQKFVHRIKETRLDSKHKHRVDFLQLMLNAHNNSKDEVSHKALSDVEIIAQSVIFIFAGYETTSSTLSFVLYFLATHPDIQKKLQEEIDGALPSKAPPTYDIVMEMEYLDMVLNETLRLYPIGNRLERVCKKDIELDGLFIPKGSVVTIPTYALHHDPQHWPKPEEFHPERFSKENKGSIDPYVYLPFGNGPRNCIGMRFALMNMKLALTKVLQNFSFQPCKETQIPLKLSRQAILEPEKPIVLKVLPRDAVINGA
Method: as §1, §2

T1 sequence (P08683 whole entry): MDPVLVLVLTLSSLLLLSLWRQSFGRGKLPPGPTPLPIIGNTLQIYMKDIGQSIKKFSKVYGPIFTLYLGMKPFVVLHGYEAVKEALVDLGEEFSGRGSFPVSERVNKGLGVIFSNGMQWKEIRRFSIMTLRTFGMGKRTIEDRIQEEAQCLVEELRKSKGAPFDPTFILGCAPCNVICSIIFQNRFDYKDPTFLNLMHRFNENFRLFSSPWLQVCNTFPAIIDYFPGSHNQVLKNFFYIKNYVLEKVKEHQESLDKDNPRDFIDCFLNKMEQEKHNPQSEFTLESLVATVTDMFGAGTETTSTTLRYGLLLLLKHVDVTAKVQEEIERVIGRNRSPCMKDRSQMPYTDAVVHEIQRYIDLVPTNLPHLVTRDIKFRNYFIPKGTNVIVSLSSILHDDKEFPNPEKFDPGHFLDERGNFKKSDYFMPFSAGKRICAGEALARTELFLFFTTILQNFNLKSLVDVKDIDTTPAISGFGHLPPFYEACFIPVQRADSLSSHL

% parent remaining ([1]; recombinant rat Cyp 2C11, 0.10 μM): 78.1%
% parent remaining ([1]; recombinant rat Cyp 2C11, 0.21 μM): 28.8%
Cyp1a2 mRNA levels in rat jejunum [2]: unchanged
IC50 [3]: > 30000 nM
% parent remaining ([4]; recombinant rat Cyp 2D2, 0.10 μM): 100%
% parent remaining ([4]; recombinant rat Cyp 2D2, 0.21 μM): 98.1%
IC50 [5]: 460 nM
% parent remaining ([6]; recombinant rat Cyp 3A2, 0.10 μM): 100%
% parent remaining ([6]; recombinant rat Cyp 3A2, 0.21 μM): 94.2%
SMILES: N#Cc1cccc(-c2noc(-c3cccnc3)n2)c1 [A-998679, 3-(5-pyridin-3-yl-1,2,4-oxadiazol-3-yl) benzonitrile]
